# Test results published in PubChem BioAssay AID1919016 (Molecular Pharmacology Branch, DTP, NCI, 2023).
# Tested on: NCI-H196 complex spheroid growth, percent test/control
# Assay: Anticancer human tumor NCI-H196 cell line growth inhibition [AhR];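 further: seven days of drug exposure starting three days after plating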;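 on viability, T/C: 100% = DMSO vehicle control wells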
# Conditions: for IC50: curve of first compound; for viability, T/C: stronger effect = lower value
# Procedure, shortened: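 Complex tumor spheroids co-cultured with HUVEC and human MSC stroma; AhR antagonists tested in combination with standard-of-care and investigational agents. Top concentration at or near clinical Cmax (else 10 microM), half-log dilutions; growth expressed as percent test/control.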
# [1] = second compound 0.1 µM, first compound 0.00316 µM
# [2] = second compound 0.1 µM, first compound 0.01 µM
# [3] = second compound 0.1 µM, first compound 0.0316 µM
# [4] = second compound 0.1 µM, first compound 0.1 µM
# [5] = second compound 0.316 µM, first compound 0.00316 µM
# [6] = second compound 0.316 µM, first compound 0.01 µM
# [7] = second compound 0.316 µM, first compound 0.0316 µM
# [8] = second compound 0.316 µM, first compound 0.1 µM
# [9] = second compound 1 µM, first compound 0.00316 µM
# [10] = second compound 1 µM, first compound 0.01 µM
# [11] = second compound 1 µM, first compound 0.0316 µM
# [12] = second compound 1 µM, first compound 0.1 µM
# [13] = second compound 3.16 µM, first compound 0.00316 µM
# [14] = second compound 3.16 µM, first compound 0.01 µM
# [15] = second compound 3.16 µM, first compound 0.0316 µM
# [16] = second compound 3.16 µM, first compound 0.1 µM
# [17] = second compound 10 µM, first compound 0.00316 µM
# [18] = second compound 10 µM, first compound 0.01 µM
# [19] = second compound 10 µM, first compound 0.0316 µM
# [20] = second compound 10 µM, first compound 0.1 µM
smiles,measurement,setting,value
Cn1ncnc1C1c2n[nH]c(=O)c3cc(F)cc(c23)NC1c1ccc(F)cc1 (stereo not given) + Cc1ccccc1N=Nc1ccc(NC(=O)c2ccnn2C)c(C)c1,IC50,second compound 0.1 µM,> 100 nM
same,IC50,second compound 0.316 µM,> 100 nM
same,IC50,second compound 1 µM,> 100 nM
same,IC50,second compound 3.16 µM,> 100 nM
same,IC50,second compound 10 µM,> 100 nM
same,"viability, T/C","second compound 0.1 µM, first compound 0.000316 µM",96.3%
same,"viability, T/C","second compound 0.1 µM, first compound 0.001 µM",112%
same,"viability, T/C",[1],105%
same,"viability, T/C",[2],101%
same,"viability, T/C",[3],102%
same,"viability, T/C",[4],103%
same,"viability, T/C","second compound 0.316 µM, first compound 0.000316 µM",108%
same,"viability, T/C","second compound 0.316 µM, first compound 0.001 µM",107%
same,"viability, T/C",[5],108%
same,"viability, T/C",[6],106%
same,"viability, T/C",[7],101%
same,"viability, T/C",[8],104%
same,"viability, T/C","second compound 1 µM, first compound 0.000316 µM",102%
same,"viability, T/C","second compound 1 µM, first compound 0.001 µM",102%
same,"viability, T/C",[9],109%
same,"viability, T/C",[10],107%
same,"viability, T/C",[11],102%
same,"viability, T/C",[12],106%
same,"viability, T/C","second compound 3.16 µM, first compound 0.000316 µM",94.2%
same,"viability, T/C","second compound 3.16 µM, first compound 0.001 µM",108%
same,"viability, T/C",[13],112%
same,"viability, T/C",[14],98.2%
same,"viability, T/C",[15],93.5%
same,"viability, T/C",[16],102%
same,"viability, T/C","second compound 10 µM, first compound 0.000316 µM",94.2%
same,"viability, T/C","second compound 10 µM, first compound 0.001 µM",102%
same,"viability, T/C",[17],96.7%
same,"viability, T/C",[18],94.7%
same,"viability, T/C",[19],92.8%
same,"viability, T/C",[20],92.6%
CC1COCCN1c1cc(-c2ccnn2C)c2ccnc(-c3ccn[nH]3)c2n1 (stereo not given) + Cc1ccccc1N=Nc1ccc(NC(=O)c2ccnn2C)c(C)c1,IC50,second compound 0.1 µM,> 1000 nM
same,IC50,second compound 0.316 µM,> 1000 nM
same,IC50,second compound 1 µM,> 1000 nM
same,IC50,second compound 3.16 µM,> 1000 nM
same,IC50,second compound 10 µM,> 1000 nM
same,"viability, T/C",[1],96.4%
same,"viability, T/C",[2],90.9%
same,"viability, T/C",[3],86%
same,"viability, T/C",[4],66%
same,"viability, T/C","second compound 0.1 µM, first compound 0.316 µM",58.3%
same,"viability, T/C","second compound 0.1 µM, first compound 1 µM",53%
same,"viability, T/C",[5],98.9%
same,"viability, T/C",[6],96.1%
same,"viability, T/C",[7],87.5%
same,"viability, T/C",[8],71.3%
same,"viability, T/C","second compound 0.316 µM, first compound 0.316 µM",52.2%
same,"viability, T/C","second compound 0.316 µM, first compound 1 µM",52.7%
same,"viability, T/C",[9],85.2%
same,"viability, T/C",[10],94.5%
same,"viability, T/C",[11],85.5%
same,"viability, T/C",[12],71.1%
same,"viability, T/C","second compound 1 µM, first compound 0.316 µM",56%
same,"viability, T/C","second compound 1 µM, first compound 1 µM",52.1%
same,"viability, T/C",[13],89.2%
same,"viability, T/C",[14],94.2%
same,"viability, T/C",[15],91.5%
same,"viability, T/C",[16],70.5%
same,"viability, T/C","second compound 3.16 µM, first compound 0.316 µM",56.6%
same,"viability, T/C","second compound 3.16 µM, first compound 1 µM",49.9%
same,"viability, T/C",[17],96.8%
same,"viability, T/C",[18],88.9%
same,"viability, T/C",[19],77.9%
same,"viability, T/C",[20],74.6%
same,"viability, T/C","second compound 10 µM, first compound 0.316 µM",63.4%
same,"viability, T/C","second compound 10 µM, first compound 1 µM",52.8%
O=C(C=Cn1cnc(-c2cc(C(F)(F)F)cc(C(F)(F)F)c2)n1)NNc1cnccn1 + Cc1ccccc1N=Nc1ccc(NC(=O)c2ccnn2C)c(C)c1,IC50,second compound 0.1 µM,33.4 nM
same,IC50,second compound 0.316 µM,36.6 nM
same,IC50,second compound 1 µM,34.8 nM
same,IC50,second compound 3.16 µM,35.4 nM
same,IC50,second compound 10 µM,41.3 nM
same,"viability, T/C","second compound 0.1 µM, first compound 0.00949 µM",71.3%
same,"viability, T/C","second compound 0.1 µM, first compound 0.03 µM",54.5%
same,"viability, T/C","second compound 0.1 µM, first compound 0.0949 µM",6.66%
same,"viability, T/C","second compound 0.1 µM, first compound 0.3 µM",6.81%
same,"viability, T/C","second compound 0.1 µM, first compound 0.949 µM",5.42%
same,"viability, T/C","second compound 0.1 µM, first compound 3 µM",7.76%
same,"viability, T/C","second compound 0.316 µM, first compound 0.00949 µM",72.7%
same,"viability, T/C","second compound 0.316 µM, first compound 0.03 µM",58.6%
same,"viability, T/C","second compound 0.316 µM, first compound 0.0949 µM",8.61%
same,"viability, T/C","second compound 0.316 µM, first compound 0.3 µM",5.66%
same,"viability, T/C","second compound 0.316 µM, first compound 0.949 µM",6.01%
same,"viability, T/C","second compound 0.316 µM, first compound 3 µM",6.07%
same,"viability, T/C","second compound 1 µM, first compound 0.00949 µM",79.8%
same,"viability, T/C","second compound 1 µM, first compound 0.03 µM",56%
same,"viability, T/C","second compound 1 µM, first compound 0.0949 µM",9.47%
same,"viability, T/C","second compound 1 µM, first compound 0.3 µM",5.55%
same,"viability, T/C","second compound 1 µM, first compound 0.949 µM",8.58%
same,"viability, T/C","second compound 1 µM, first compound 3 µM",8.52%
same,"viability, T/C","second compound 3.16 µM, first compound 0.00949 µM",68.4%
same,"viability, T/C","second compound 3.16 µM, first compound 0.03 µM",56.8%
same,"viability, T/C","second compound 3.16 µM, first compound 0.0949 µM",9.86%
same,"viability, T/C","second compound 3.16 µM, first compound 0.3 µM",4.79%
same,"viability, T/C","second compound 3.16 µM, first compound 0.949 µM",7.89%
same,"viability, T/C","second compound 3.16 µM, first compound 3 µM",8.09%
same,"viability, T/C","second compound 10 µM, first compound 0.00949 µM",74.6%
same,"viability, T/C","second compound 10 µM, first compound 0.03 µM",64%
same,"viability, T/C","second compound 10 µM, first compound 0.0949 µM",13.8%
same,"viability, T/C","second compound 10 µM, first compound 0.3 µM",10.6%
same,"viability, T/C","second compound 10 µM, first compound 0.949 µM",8.84%
same,"viability, T/C","second compound 10 µM, first compound 3 µM",12.8%
